Results as given in the NIST ThermoML archive (doi:10.1021/je5002126).

Legend:
[1] = xn = mol fraction of the nth substance listed; conditions: for electrical conductivity / viscosity / mass density: 101 kPa, Liquid; for electrical conductivity: Alternating current cell with electrodes; for viscosity: Concentric cylinders viscometry; for mass density: Vibrating tube method; for surface tension liquid-gas: Ring tensiometer
[2] = refractive index (Na D-line) (dimensionless); xn = mol fraction of the nth substance listed; conditions: 101 kPa, Liquid, Standard Abbe refractometry

CCCC[N+](CCCC)(CCCC)CCCC.[Cl-] [tetrabutylammonium chloride] + OCC(O)CO
Conditions	electrical conductivity, [1] [S/m]	mass density, [1] [kg/m3]	refractive index, [2]	surface tension liquid-gas, [1] [mN/m]	viscosity, [1] [mPa·s]
293.15 K, x1 = 0.167	0.0162	1040	1.4781	–	1100
293.15 K, x1 = 0.2	0.0192	1029	1.4776	–	950
293.15 K, x1 = 0.25	0.017	1014	1.4802	–	1170
303.15 K, x1 = 0.167	0.0307	1034	1.4754	47.1	541.3
303.15 K, x1 = 0.2	0.0358	1023	1.4747	46.7	476.1
303.15 K, x1 = 0.25	0.0309	1008	1.4774	46	580
313.15 K, x1 = 0.167	0.0492	1027	1.4726	46.2	261
313.15 K, x1 = 0.2	0.0525	1017	1.4718	45.9	225
313.15 K, x1 = 0.25	0.0485	1001	1.4745	44.9	293.3
323.15 K, x1 = 0.167	0.0788	1020	1.4697	45.5	137.3
323.15 K, x1 = 0.2	0.0863	1010	1.4687	44.9	115.7
323.15 K, x1 = 0.25	0.0781	995	1.4716	44.1	157
333.15 K, x1 = 0.167	0.114	1014	1.4668	45	78.4
333.15 K, x1 = 0.2	0.131	1004	1.4658	44.1	64.7
333.15 K, x1 = 0.25	0.117	988	1.4685	43.4	90.7
343.15 K, x1 = 0.167	0.141	1007	1.4638	44.2	47.6
343.15 K, x1 = 0.2	0.182	997	1.4626	43.5	41.9
343.15 K, x1 = 0.25	0.151	982	1.4652	42.7	56.7
353.15 K, x1 = 0.167	0.222	1000	1.4607	43.5	32
353.15 K, x1 = 0.2	0.264	991	1.4603	42.9	25
353.15 K, x1 = 0.25	0.24	976	1.462	41.9	36.7

CCCC[N+](CCCC)(CCCC)CCCC.[Cl-] [tetrabutylammonium chloride] + OCCO
Conditions	electrical conductivity, [1] [S/m]	mass density, [1] [kg/m3]	refractive index, [2]	surface tension liquid-gas, [1] [mN/m]	viscosity, [1] [mPa·s]
293.15 K, x1 = 0.2	0.000202	1145	1.4615	–	85.33
293.15 K, x1 = 0.25	0.000154	1130	1.4653	–	105
293.15 K, x1 = 0.333	9.91e-05	1105	1.4703	–	212
303.15 K, x1 = 0.2	0.000272	1138	1.4585	40.7	56.9
303.15 K, x1 = 0.25	0.000214	1123	1.4619	40.1	71.9
303.15 K, x1 = 0.333	0.000139	1099	1.4672	39.3	127
313.15 K, x1 = 0.2	0.000354	1132	1.4554	39.9	37.16
313.15 K, x1 = 0.25	0.000293	1117	1.4587	39.4	45.17
313.15 K, x1 = 0.333	0.00022	1092	1.4641	38.3	76.43
323.15 K, x1 = 0.2	0.00045	1125	1.4523	39.1	26.27
323.15 K, x1 = 0.25	0.000387	1110	1.4556	38.3	29.37
323.15 K, x1 = 0.333	0.00026	1086	1.4609	37.2	49.3
333.15 K, x1 = 0.2	0.000521	1119	1.4491	38.3	19.7
333.15 K, x1 = 0.25	0.000457	1104	1.4525	37.5	20.23
333.15 K, x1 = 0.333	0.000375	1079	1.4578	36.6	33.6
343.15 K, x1 = 0.2	0.000615	1112	1.445	37.5	14.85
343.15 K, x1 = 0.25	0.000567	1097	1.4495	36.8	14.53
343.15 K, x1 = 0.333	0.000385	1073	1.4545	35.7	23.53
353.15 K, x1 = 0.2	0.000722	1106	1.4427	36.8	10.5
353.15 K, x1 = 0.25	0.00062	1091	1.4469	36.1	10.7
353.15 K, x1 = 0.333	0.000468	1067	1.4509	34.9	16

CCCC[N+](CCCC)(CCCC)CCCC.[Cl-] [tetrabutylammonium chloride] + OCCOCCOCCO
Conditions	electrical conductivity, [1] [S/m]	mass density, [1] [kg/m3]	refractive index, [2]	surface tension liquid-gas, [1] [mN/m]	viscosity, [1] [mPa·s]
293.15 K, x1 = 0.5	0.0139	1027	1.48	–	870
293.15 K, x1 = 0.667	0.00681	1007	1.4851	–	–
293.15 K, x1 = 0.75	0.00221	996	1.4858	–	–
293.15 K, x1 = 0.8	0.00178	990	1.4871	–	–
303.15 K, x1 = 0.5	0.0228	1021	1.4772	40.6	543.8
303.15 K, x1 = 0.667	0.0149	1001	1.4821	40.1	1399
303.15 K, x1 = 0.75	0.005	990	1.4836	39.3	–
303.15 K, x1 = 0.8	0.0047	985	1.4841	40	3265.3
313.15 K, x1 = 0.5	0.0376	1015	1.4742	39.5	289.4
313.15 K, x1 = 0.667	0.0284	995	1.479	38.6	952.2
313.15 K, x1 = 0.75	0.0097	984	1.4806	38.3	7031.7
313.15 K, x1 = 0.8	0.0108	980	1.4811	38.4	1900.4
323.15 K, x1 = 0.5	0.055	1009	1.4711	38.8	166.4
323.15 K, x1 = 0.667	0.0458	989	1.476	38	493
323.15 K, x1 = 0.75	0.0154	978	1.4777	37.2	909.1
323.15 K, x1 = 0.8	0.0214	973	1.4781	37.3	862.9
333.15 K, x1 = 0.5	0.0805	1003	1.4678	38.2	100.8
333.15 K, x1 = 0.667	0.0676	983	1.4731	37.4	264.1
333.15 K, x1 = 0.75	0.0217	972	1.4747	36.6	452.1
333.15 K, x1 = 0.8	0.0252	968	1.4752	36.5	411.2
343.15 K, x1 = 0.5	0.11	997	1.4646	37.6	68.1
343.15 K, x1 = 0.667	0.0842	976	1.4701	36.4	154
343.15 K, x1 = 0.75	0.0282	966	1.4717	35.7	244.7
343.15 K, x1 = 0.8	0.0262	961	1.4722	35.6	204.5
353.15 K, x1 = 0.5	0.147	991	1.4614	37	44.7
353.15 K, x1 = 0.667	0.092	970	1.4673	35.6	91.3
353.15 K, x1 = 0.75	0.0319	960	1.4686	34.9	155.6
353.15 K, x1 = 0.8	0.0273	955	1.4692	34.6	99.9
